Assay results: patent publication US20260097022A1, “COMPOUNDS AND USES THEREOF” (Integrated Biosciences, Inc., priority 2023, published 2026)

Test system: etoposide-treated IMR-90 cells
Experiment: Etoposide-induced senescence model, resazurin cell viability (screen and dose-response)
Format: cell-based, human
Details: etoposide-induced senescence model; ratio of IC50 values between etoposide- and DMSO-treated IMR-90 fibroblasts
Protocol: Cell culture. Human lung fibroblast (IMR-90) cells were obtained from ATCC (CCL-186) and passaged less than 10 times (less than 30 population doublings) for all experiments described in this example, with the exception of high-passage cells used in the model of replicative senescence (see the section on Replicative senescence below). Cells were cultured in growth media comprising Eagle's Minimum Essential Medium (EMEM: ATCC 30-2003) supplemented with 10% fetal bovine serum (FBS: Thermo Fisher 16140071) and 1% penicillin-streptomycin (Thermo Fisher 15070063). Cells were incubated in a humidity-controlled incubator at 37° C., with 5% CO2. Cells were detached using trypsin-EDTA (0.05%; Gibco 25300120).
Etoposide-induced senescence. IMR-90 cells were cultured as described above. At between 30 to 50% confluence, the media was replaced with complete growth media containing vehicle (0.5% dimethyl sulfoxide: DMSO, MilliporeSigma D5879) or complete growth media containing 50 μM etoposide (prepared as a 1:200 dilution of a 10 mM stock solution in DMSO; etoposide, MilliporeSigma E1383). Cells were treated for 2 days, after which the media was replaced with fresh growth media and cells were allowed to recover for 4 days. Cells were then plated as described below.
Chemical screening. For all screening experiments. 99 μL of cells were plated into each well of a 96-well clear flat-bottom, black polystyrene tissue-culture-treated plate (Corning 3904) at a density of ˜10+ cells/well. Plates were incubated overnight for adhesion. The day after plating. 1 μL of each compound, prepared as either a 1 mM stock solution in DMSO (10 μM final concentration screen) or 0.1 mM stock solution in DMSO (1 μM final concentration screen), was added to each well using an Agilent Bravo liquid handler. A built-in slow mixing step involving aspirating and dispensing was used to enhance distribution of the added compounds in solution. Cells were incubated for 3 days, after which resazurin (MilliporeSigma R^7017) was added to each well to a final concentration of 0.15 mM. After an additional 1 day of incubation, the fluorescence excitation/emission at 550/590 nm was read using a SpectraMaxR M3 plate reader and manufacturer software (SoftMax Pro R 6). Experiments were performed in biological duplicate.
Three-fold serial dilutions of compound were prepared in DMSO, then added to cell plates (final concentration of DMSO. 1%). Cell viability was then assayed as detailed above, and resazurin fluorescence values were linearly interpolated with respect to values from empty and positive control (non-treatment) wells. Experiments were performed in biological duplicate each on two independent occasions. When possible, chemical stocks from commercial suppliers were used: econazole nitrate (Cayman Chemical 20223), artenimol (Cayman Chemical 19846), and ABT-263 (Cayman Chemical 11500) were from Cayman Chemical, and dehydrodeguelin was aliquoted from the screening library.
Calculation of cellular viability values in dose-response curves. […] For each sample, the fluorescence intensity value was normalized by the mean of two untreated control values. Cellular viability values are therefore indicated as fractions of the cellular viability of untreated controls. Vehicle (1% DMSO) control values are included in each dose-response curve. Experiments were performed in biological duplicate each on two independent occasions.
Calculation of baseline cellular viability values. […] Additionally, baseline cellular viability values were calculated for untreated cells at the start of the experiment. Resazurin was added to a final concentration of 0.15 mM on the day of seeding (corresponding to day 0 in FIG. 7).

Row | Compound | Therapeutic Index (TI)
1 | CCOc1ccc(C(=O)Nc2ccc3nc(SCC(N)=O)sc3c2)cc1 [compound 91] | ++ (compounds with a TI of 1 to 5 were labelled as ++)
2 | O=C(CSc1nc2ccc(NC(=O)c3cccc4ccccc34)cc2s1)Nc1ccccc1F [compound 92] | ++ (compounds with a TI of 1 to 5 were labelled as ++)
3 | Cc1ccccc1C(=O)Nc1ccc2nc(SCC(=O)NCCOc3ccccc3)sc2c1 [compound 93] | ++ (compounds with a TI of 1 to 5 were labelled as ++)
4 | CCOc1ccc(C(=O)Nc2ccc3nc(SCC(=O)Nc4ccc(C)cc4)sc3c2)cc1 [compound 94] | ++ (compounds with a TI of 1 to 5 were labelled as ++)
5 | Cc1cccc(NC(=O)CSc2nc3ccc(NC(=O)c4ccccc4Cl)cc3s2)c1C [compound 95] | ++ (compounds with a TI of 1 to 5 were labelled as ++)
6 | O=C(CSc1nc2ccc(NC(=O)c3ccccc3Cl)cc2s1)Nc1ccccc1 [compound 96] | ++ (compounds with a TI of 1 to 5 were labelled as ++)
7 | CCc1cccc(CC)c1NC(=O)CSc1nc2ccc(NC(=O)c3ccccc3)cc2s1 [compound 97] | ++ (compounds with a TI of 1 to 5 were labelled as ++)
8 | CC(C)(C)c1ccc(C(=O)Nc2ccc3nc(SCC(=O)Nc4ccccc4)sc3c2)cc1 [compound 98] | ++ (compounds with a TI of 1 to 5 were labelled as ++)
9 | Cc1ccc(NC(=O)CSc2nc3ccc(NC(=O)c4ccccc4C)cc3s2)c(C)c1 [compound 99] | ++ (compounds with a TI of 1 to 5 were labelled as ++)
10 | Cc1ccccc1C(=O)Nc1ccc2nc(SCC(=O)Nc3ccc(Cl)cc3)sc2c1 [compound 100] | ++ (compounds with a TI of 1 to 5 were labelled as ++)
11 | COc1ccc(NC(=O)CSc2nc3ccc(NC(=O)c4ccccc4OC)cc3s2)cc1 [compound 101] | ++ (compounds with a TI of 1 to 5 were labelled as ++)
12 | Cc1cccc(NC(=O)CSc2nc3ccc(NC(=O)c4cccc5ccccc45)cc3s2)c1C [compound 102] | ++ (compounds with a TI of 1 to 5 were labelled as ++)
13 | COc1ccc(C(=O)Nc2ccc3nc(SCC(=O)Nc4cc(C)cc(C)c4)sc3c2)cc1 [compound 103] | ++ (compounds with a TI of 1 to 5 were labelled as ++)
14 | COc1ccccc1C(=O)Nc1ccc2nc(SCC(=O)Nc3ccccc3)sc2c1 [compound 104] | ++ (compounds with a TI of 1 to 5 were labelled as ++)
15 | COC(=O)c1ccc(NC(=O)CSc2nc3ccc(NC(=O)c4ccccc4F)cc3s2)cc1 [compound 105] | ++ (compounds with a TI of 1 to 5 were labelled as ++)
16 | Cc1cccc(C(=O)Nc2ccc3nc(SCC(=O)Nc4ccccc4)sc3c2)c1 [compound 106] | ++ (compounds with a TI of 1 to 5 were labelled as ++)
17 | Cc1ccccc1C(=O)Nc1ccc2nc(SCC(=O)Nc3cccc(Cl)c3)sc2c1 [compound 107] | ++ (compounds with a TI of 1 to 5 were labelled as ++)
18 | COc1ccc(NC(=O)CSc2nc3ccc(NC(=O)c4cccc5ccccc45)cc3s2)cc1 [compound 108] | ++ (compounds with a TI of 1 to 5 were labelled as ++)
19 | CCCCOc1ccc(NC(=O)CSc2nc3ccc(NC(=O)c4ccccc4OC)cc3s2)cc1 [compound 109] | ++ (compounds with a TI of 1 to 5 were labelled as ++)
20 | Cc1ccccc1C(=O)Nc1ccc2nc(SCC(=O)Nc3ccccc3Cl)sc2c1 [compound 110] | ++ (compounds with a TI of 1 to 5 were labelled as ++)
21 | COc1ccc(NC(=O)CSc2nc3ccc(NC(=O)c4ccc(Cl)cc4)cc3s2)cc1 [compound 111] | ++ (compounds with a TI of 1 to 5 were labelled as ++)
22 | COc1ccccc1C(=O)Nc1ccc2nc(SCC(=O)Nc3ccc(Cl)cc3)sc2c1 [compound 112] | ++ (compounds with a TI of 1 to 5 were labelled as ++)
23 | COc1ccc(C(=O)Nc2ccc3nc(SCC(=O)Nc4cc(Cl)ccc4C)sc3c2)cc1 [compound 113] | ++ (compounds with a TI of 1 to 5 were labelled as ++)

Row | Compound | Therapeutic Index (TI)
24 | CC(=O)c1ccc(NC(=O)CSc2nc3ccc(NC(=O)c4ccc(Cl)cc4)cc3s2)cc1 [compound 114] | ++ (compounds with a TI of 1 to 5 were labelled as ++)
25 | COc1ccc(NC(=O)CSc2nc3ccc(NC(=O)c4ccc(C)cc4)cc3s2)cc1 [compound 115] | ++ (compounds with a TI of 1 to 5 were labelled as ++)
26 | O=C(CSc1nc2ccc(NC(=O)c3ccccc3F)cc2s1)NC1CC1 [compound 116] | ++ (compounds with a TI of 1 to 5 were labelled as ++)
27 | COc1ccc(NC(=O)CSc2nc3ccc(NC(=O)c4ccc(C(C)(C)C)cc4)cc3s2)cc1 [compound 117] | ++ (compounds with a TI of 1 to 5 were labelled as ++)
28 | Cc1cc(C)cc(NC(=O)CSc2nc3ccc(NC(=O)c4ccccc4C)cc3s2)c1 [compound 118] | ++ (compounds with a TI of 1 to 5 were labelled as ++)
29 | CCOc1ccc(C(=O)Nc2ccc3nc(SCC(=O)Nc4ccccc4)sc3c2)cc1 [compound 119] | ++ (compounds with a TI of 1 to 5 were labelled as ++)
30 | CCOc1ccc(C(=O)Nc2ccc3nc(SCC(=O)Nc4ccc(F)cc4)sc3c2)cc1 [compound 120] | ++ (compounds with a TI of 1 to 5 were labelled as ++)
31 | Cc1ccccc1C(=O)Nc1ccc2nc(SCC(=O)Nc3ccc(Br)cc3)sc2c1 [compound 121] | ++ (compounds with a TI of 1 to 5 were labelled as ++)
32 | O=C(CSc1nc2ccc(NC(=O)c3ccc(F)cc3)cc2s1)Nc1ccccc1 [compound 122] | ++ (compounds with a TI of 1 to 5 were labelled as ++)
33 | CCc1ccc(NC(=O)CSc2nc3ccc(NC(=O)c4ccccc4OC)cc3s2)cc1 [compound 123] | ++ (compounds with a TI of 1 to 5 were labelled as ++)
34 | CCCCOc1ccc(C(=O)Nc2ccc3nc(SCC(=O)Nc4ccc(CC)cc4)sc3c2)cc1 [compound 124] | ++ (compounds with a TI of 1 to 5 were labelled as ++)
35 | Cc1ccccc1C(=O)Nc1ccc2nc(SCC(=O)N(C)c3ccccc3)sc2c1 [compound 125] | ++ (compounds with a TI of 1 to 5 were labelled as ++)
36 | CCCCOc1ccc(NC(=O)CSc2nc3ccc(NC(=O)c4cccc(C)c4)cc3s2)cc1 [compound 126] | ++ (compounds with a TI of 1 to 5 were labelled as ++)
37 | O=C(CSc1nc2ccc(NC(=O)c3ccccc3Br)cc2s1)Nc1ccccc1 [compound 127] | ++ (compounds with a TI of 1 to 5 were labelled as ++)
38 | O=C(CSc1nc2ccc(NC(=O)c3ccccc3)cc2s1)Nc1ccccc1C(F)(F)F [compound 128] | ++ (compounds with a TI of 1 to 5 were labelled as ++)
39 | CCCCOc1ccc(NC(=O)CSc2nc3ccc(NC(=O)c4ccc(Cl)cc4Cl)cc3s2)cc1 [compound 129] | ++ (compounds with a TI of 1 to 5 were labelled as ++)
40 | COc1ccccc1C(=O)Nc1ccc2nc(SCC(=O)Nc3ccccc3C)sc2c1 [compound 130] | ++ (compounds with a TI of 1 to 5 were labelled as ++)
41 | COc1ccc(Cl)cc1NC(=O)CSc1nc2ccc(NC(=O)c3ccc(C)cc3)cc2s1 [compound 131] | ++ (compounds with a TI of 1 to 5 were labelled as ++)
42 | O=C(Nc1ccc2nc(SCC(=O)N3CCc4ccccc43)sc2c1)c1ccccc1Cl [compound 132] | ++ (compounds with a TI of 1 to 5 were labelled as ++)
43 | CC(=O)Nc1ccc(NC(=O)CSc2nc3ccc(NC(=O)c4ccc(C)cc4)cc3s2)cc1 [compound 133] | ++ (compounds with a TI of 1 to 5 were labelled as ++)
44 | CCc1ccc(NC(=O)CSc2nc3ccc(NC(=O)c4ccccc4)cc3s2)cc1 [compound 134] | ++ (compounds with a TI of 1 to 5 were labelled as ++)
45 | CC(=O)Nc1ccc(NC(=O)CSc2nc3ccc(NC(=O)c4ccccc4)cc3s2)cc1 [compound 135] | ++ (compounds with a TI of 1 to 5 were labelled as ++)
